# In patent USRE48461E1, “Modulation of androgen receptor expression” (Ionis Pharmaceuticals, Inc., priority 2012, dated 2021):
# Oligonucleotides are written 5' to 3', each unit as a sugar letter and its base; * is a phosphorothioate linkage, no mark a phosphodiester; rarer units and linkages stand in square brackets, end groups in braces. Plain capitals give the bases only. k = constrained ethyl (cEt); d = 2'-deoxy (DNA)
# System: prostate-specific antigen (PSA) mRNA
# Test: PSA mRNA levels in LMR20 cells
# Assay type: cell-based, human
# Conditions: LMR20 cells; for PSA mRNA levels (% baseline value) after treatment with DHT: DHT 10 nM 72 hrs; for PSA mRNA levels (% baseline value) after treatment with R1881: R1881 10 nM 72 hrs; for PSA mRNA levels (% baseline value) of cells without AR agonist treatment: no AR agonist
# Description: LMR20 cells were plated at 1,500 cells per well in phenol red-free medium with CSS. […] Results are presented in Tables 43-45 as mRNA levels expressed as a percentage of the baseline values. mRNA levels may be lowered or increased after treatment.
substance,measurement,setting,value
549458 (kG*kT*kT*dG*dA*dT*dT*dT*dA*dA*dT*dG*dG*kT*kT*kG) [compound 549458],PSA mRNA levels (% baseline value) after treatment with DHT,ASO 0.04 μM,93 % baseline value
same,PSA mRNA levels (% baseline value) after treatment with DHT,ASO 0.20 μM,71 % baseline value
same,PSA mRNA levels (% baseline value) after treatment with DHT,ASO 1.0 μM,47 % baseline value
same,PSA mRNA levels (% baseline value) after treatment with DHT,ASO 5.0 μM,47 % baseline value
same,PSA mRNA levels (% baseline value) after treatment with R1881,ASO 0.04 μM,93 % baseline value
same,PSA mRNA levels (% baseline value) after treatment with R1881,ASO 0.20 μM,67 % baseline value
same,PSA mRNA levels (% baseline value) after treatment with R1881,ASO 1.0 μM,50 % baseline value
same,PSA mRNA levels (% baseline value) after treatment with R1881,ASO 5.0 μM,44 % baseline value
same,PSA mRNA levels (% baseline value) of cells without AR agonist treatment,ASO 0.04 μM,135 % baseline value
same,PSA mRNA levels (% baseline value) of cells without AR agonist treatment,ASO 0.20 μM,85 % baseline value
same,PSA mRNA levels (% baseline value) of cells without AR agonist treatment,ASO 1.0 μM,50 % baseline value
same,PSA mRNA levels (% baseline value) of cells without AR agonist treatment,ASO 5.0 μM,72 % baseline value
